Assay results: US12378224B2 (Dong-A Socio Holdings Co., Ltd., priority 2016, dated 2025)

Tests used:
[1] = target: human MER (528-end) (Homo sapiens (Human), UniProt Q12866); test: HTRF Kinase Activity Biochemical Assay (KinEASE-TK); conditions: 10 uM ATP
Method in brief: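 Recombinant human MER (528-end) phosphorylated biotin-TK peptide substrate, 1 h at room temperature. Reaction stopped with detection buffer containing 0.375 nM Eu3+-cryptate anti-TK antibody and 0.062 uM streptavidin-XL665, 1 h further. Activity taken as HTRF ratio 665/620 nm ×10,000, 340 nm excitation.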

[2] = target: CD8-MerTK (Ba/F3-CDM cells) (Homo sapiens, UniProt Q12866); test: In Cell MER Kinase Assay Using BaF3 Cellular System; format: cell-based; conditions: Ba/F3-CDM proliferation without IL-3, 48 hours, Celltiter-Glo
Chain of CD8-MerTK (Ba/F3-CDM cells) (Q12866 21-999 limits assumed, stated change not applied): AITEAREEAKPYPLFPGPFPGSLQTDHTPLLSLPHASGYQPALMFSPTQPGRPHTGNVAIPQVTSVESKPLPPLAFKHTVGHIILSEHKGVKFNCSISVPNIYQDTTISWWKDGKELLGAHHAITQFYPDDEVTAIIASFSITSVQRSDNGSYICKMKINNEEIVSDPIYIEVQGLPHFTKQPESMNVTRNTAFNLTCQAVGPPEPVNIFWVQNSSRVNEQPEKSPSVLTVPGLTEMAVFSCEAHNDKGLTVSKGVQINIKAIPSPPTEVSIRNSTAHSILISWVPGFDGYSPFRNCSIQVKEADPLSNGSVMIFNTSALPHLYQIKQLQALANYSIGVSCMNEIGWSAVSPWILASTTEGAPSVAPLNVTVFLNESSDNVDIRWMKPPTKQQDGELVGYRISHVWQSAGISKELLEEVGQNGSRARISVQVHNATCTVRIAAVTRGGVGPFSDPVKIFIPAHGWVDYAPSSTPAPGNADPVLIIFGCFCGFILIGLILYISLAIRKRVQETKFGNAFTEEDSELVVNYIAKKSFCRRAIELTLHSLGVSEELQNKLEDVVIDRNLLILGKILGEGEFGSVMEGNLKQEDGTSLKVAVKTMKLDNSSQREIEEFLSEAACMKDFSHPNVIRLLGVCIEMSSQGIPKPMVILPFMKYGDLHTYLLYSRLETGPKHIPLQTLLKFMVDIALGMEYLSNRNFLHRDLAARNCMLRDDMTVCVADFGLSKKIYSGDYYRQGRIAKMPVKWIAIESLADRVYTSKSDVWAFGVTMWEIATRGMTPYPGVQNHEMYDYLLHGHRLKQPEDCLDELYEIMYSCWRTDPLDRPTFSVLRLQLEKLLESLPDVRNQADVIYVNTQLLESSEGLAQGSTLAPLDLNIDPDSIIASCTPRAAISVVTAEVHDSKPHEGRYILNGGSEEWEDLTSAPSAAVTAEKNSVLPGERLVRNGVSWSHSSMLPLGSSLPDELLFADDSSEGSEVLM
Excerpt: CD8-MerTK is a chimeric fusion protein consisting of the extracellular and transmembrane domains of the human CD8α (amino acids 1 to 209) at its N-terminus and the kinase domain and intracellular parts of MerTK (amino acids 521-994) at its C-terminus. To establish an in cell kinase assay for MerTK kinase, the IL-3 dependent Ba/F3 cells of murine lymphoid origin was transfected with CD8-MerTK. The resulting Ba/F3-CDM line was then validated that Ba/F3-CDM cell proliferation is completely dependent on the activity of MerTK kinase activity when growing in the absence of IL-3. For a routine cellular assay, Ba/F3-CDM cells were seeded at 2,000 cells per well in 384-well cell culture plate containing DMEM/10% FBS culture media and incubated for 24 hours before addition of compounds pre-diluted in culture media. Following compound treatment, cells were further incubated for 48 hours and the proliferation was measured. To discriminate a Ba/F3 growth inhibition by a specific inhibition of MerTK kinase following compound treatment vs growth inhibition due to a non-specific unintended cytotoxicity of compounds, we routinely carried out control sets of Ba/F3 cells in parallel that grown in IL3-supplemented growth media. In the presence of IL-3, the proliferation of Ba/F3 is no longer dependent on the MerTK activity. Cell growth and proliferation was measured with Celltiter-Glo™ system (Promega, USA) according to the manufacturer's instruction. The half-maximal growth inhibitory concentration (GI50) value was calculated with Prism6.0 software (GraphPad, USA).

[3] = target: BCR fusion to kinase domain of MerTK (Ba/F3-MerTK) (Homo sapiens, UniProt Q12866); test: In Cell TAM Kinase Assay Using BaF3 Cellular System; format: cell-based, murine; conditions: Ba/F3 BCR-kinase fusion proliferation, 72 hours, Cell Titer Glo; kinase not given; read-out: IC50
Chain of BCR fusion to kinase domain of MerTK (Ba/F3-MerTK) (Q12866 21-999 limits assumed, change not shown): as the sequence (Q12866 21-999 limits assumed, stated change not applied) above
Method in brief: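 Ba/F3 murine pro-B cells expressing BCR–MerTK kinase-domain fusion (IL-3 independent), seeded at 1,000 cells/well onto compound and grown 72 h. Viability read by CellTiter-Glo 2.0 luminescence after 30 min at room temperature.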

Chain of human MER (528-end) (Q12866 528-999 limits assumed): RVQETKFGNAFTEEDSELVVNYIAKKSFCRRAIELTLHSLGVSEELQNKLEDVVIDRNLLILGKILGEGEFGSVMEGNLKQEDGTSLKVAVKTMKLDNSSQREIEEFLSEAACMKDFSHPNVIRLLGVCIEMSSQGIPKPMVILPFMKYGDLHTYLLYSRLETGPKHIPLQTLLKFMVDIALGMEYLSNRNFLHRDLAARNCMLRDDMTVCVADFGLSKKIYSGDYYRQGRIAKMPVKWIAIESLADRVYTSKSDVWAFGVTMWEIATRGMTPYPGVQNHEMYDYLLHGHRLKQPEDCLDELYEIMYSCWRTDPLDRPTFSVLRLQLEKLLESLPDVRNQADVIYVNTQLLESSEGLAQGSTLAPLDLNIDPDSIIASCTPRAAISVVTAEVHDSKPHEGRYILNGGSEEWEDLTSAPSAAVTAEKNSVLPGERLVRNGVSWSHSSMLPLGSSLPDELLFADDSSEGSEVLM

Molecule	IC50 [1] [nM]	IC50 [3] [nM]	IC50 [2] [nM]
Nc1ncc(-c2ccccc2C(=O)O)cc1C(=O)N[C@@H]1CCN(C(=O)c2ccc(-c3ccc(F)cc3Cl)cc2)C1 [Example 777, (R)-2-(6-amino-5-((1-(2′-chloro-4′-fluoro-[1,1′-biphenyl]-4-carbonyl)pyrrolidin-3-yl)carbarnoyl)pyridin-3-yl)benzoic acid]	> 1000		> 1000
Nc1ncc(-c2ccc(N3CCOCC3)nc2)cc1C(=O)N[C@@H]1CCN(C(=O)c2ccc(-c3ccccc3)cc2)C1 [Example 559]	10 to 100		100 to 500
Cc1cc(-c2ccc(CN3CCN(C)CC3)cc2)ccc1C(=O)N1CC[C@@H](NC(=O)c2cc(-c3cnn(C)c3)cnc2N)C1 [Example 391, (R)-2-amino-5-(1-methyl-1H-pyrazol-4-yl)-N-(1-(3-methyl-4^1-((4-methylpiperazin-1-yl)methyl)-[1,1′-biphenyl]-4-carbonyl)pyrrolidin-3-yl)nicotinamide]	> 1000		> 1000
(R)-2-amino-N-(1-(2-chloro-[1,1′-biphenyl]-4-carbonyl)pyrrolidin-3-yl)-5-(1-methyl-1H-pyrazol-4-yl)nicotinamide [Example 394]	100 to 1000		> 1000
(R)-2-amino-N-(1-(2′-chloro-4′-fluoro-[1,1′-biphenyl]-4-carbonyl)pyrrolidin-3-yl)-5-(2-(piperidin-4-ylmethoxy)phenyl)nicotinamide [Example 771]	100 to 1000	> 1000	
Cc1cscc1-c1ccc(C(=O)N2CC[C@@H](NC(=O)c3cc(-c4cnn(C)c4)cnc3N)C2)cc1 [Example 523, (R)-2-amino-5-(1-methyl-1H-pyrazol-4-yl)-N-(1-(4-(4-methylthiophen-3-yl)benzoyl)pyrrolidin-3-yl)nicotinamide]	10 to 100	500 to 1000	
Nc1ncc(-c2ccc(C(=O)N3CCOCC3)cc2)cc1C(=O)N[C@@H]1CCN(C(=O)c2ccc(-c3ccccc3Cl)cc2)C1 [Example 590, (R)-2-amino-N-(1-(2′-chloro-[1,1′-biphenyl]-4-carbonyl)pyrrolidin-3-yl)-5-(4-(morpholine-4-carbonyl)phenyl)nicotinamide]	10 to 100	> 1000	
Nc1ncc(-c2ccc(F)nc2)cc1C(=O)N[C@@H]1CCN(C(=O)c2ccc(-c3ccc(F)cc3Cl)cc2)C1 [Example 774, (R)-6-amino-N-(1-(2′-chloro-4′-fluoro-[1,1′-biphenyl]-4-carbonyl)pyrrolidin-3-yl)-6^1-fluoro-[3,3′-bipyridine]-5-carboxamide]	10 to 100	100 to 500	
Cn1cc(-c2cnc(N)c(C(=O)N[C@@H]3CCN(C(=O)c4ccc(-c5ccc(F)cc5Cl)cc4)C3)c2)cn1 [Example 366, (R)-2-amino-N-(1-(2′-chloro-4′-fluoro-[1,1′-biphenyl]-4-carbonyl)pyrrolidin-3-yl)-5-(1-methyl-1H-pyrazol-4-yl)nicotinamide]	10 to 100	100 to 500	
Cc1cc(C(=O)N2CC[C@@H](NC(=O)c3cc(-c4cnn(C)c4)cnc3N)C2)ccc1-c1ccc(CN2CCN(C)CC2)cc1 [Example 392, (R)-2-amino-5-(1-methyl-1H-pyrazol-4-yl)-N-(1-(2-methyl-4^1-((4-methylpiperazin-1-yl)methyl)-[1,1′-biphenyl]-4-carbonyl)pyrrolidin-3-yl)nicotinamide]	100 to 1000		> 1000
CN1CCC(N(C)c2ccc3cc(C(=O)N4CC[C@@H](NC(=O)c5cc(-c6cnn(C)c6)cnc5N)C4)ccc3c2)CC1 [Example 644, (R)-2-amino-N-(1-(6-(methyl(1-methylpiperidin-4-yl)amino)-2-naphthoyl)pyrrolidin-3-yl)-5-(1-methyl-1H-pyrazol-4-yl)nicotinamide]	10 to 100	100 to 500	

Now from value to molecule, other results behind:

IC50 [1] [nM]	IC50 [3] [nM]	Molecule	IC50 [2] [nM]
10 to 100	> 1000	Cn1cc(-c2cnc(N)c(C(=O)N[C@@H]3CCN(C(=O)c4ccc(-c5ccc(Oc6ccc(C(=O)O)cc6)cc5)cc4)C3)c2)cn1 [Example 812, (R)-4-((4′-(3-(2-amino-5-(1-methyl-1H-pyrazol-4-yl)nicotinamido)pyrrolidine-1-carbonyl)-[1,1′-biphenyl]-4-yl)oxy)benzoic acid]	
100 to 1000	> 1000	Nc1ccccc1-c1cnc(N)c(C(=O)N[C@@H]2CCN(C(=O)c3ccc(-c4ccc(F)cc4Cl)cc3)C2)n1 [Example 779, (R)-3-amino-6-(2-aminophenyl)-N-(1-(2′-chloro-4′-fluoro-[1,1′-biphenyl]-4-carbonyl)pyrrolidin-3-yl)pyrazine-2-carboxamide]	
> 1000	> 1000	Cn1cc(-c2cnc(N)c(C(=O)N[C@@H]3CCN(C(=O)c4c[nH]c5ccccc45)C3)c2)cn1 [Example 710, (R)—N-(1-(1H-indole-3-carbonyl)pyrrolidin-3-yl)-2-amino-5-(1-methyl-1H-pyrazol-4-yl)nicotinamide]	
100 to 1000	> 1000	Cn1cc(-c2cnc(N)c(C(=O)N[C@@H]3CCN(C(=O)c4ccc(Oc5cccc(N)c5)cc4)C3)c2)cn1 [Example 830, (R)-2-amino-N-(1-(4-(3-aminophenoxy)benzoyl)pyrrolidin-3-yl)-5-(1-methyl-1H-pyrazol-4-yl)nicotinamide]	
100 to 1000	> 1000	Cc1cc(N)ccc1N(C)c1ccc(-c2ccc(C(=O)N3CC[C@@H](NC(=O)c4cc(-c5cnn(C)c5)cnc4N)C3)cc2)cc1 [Example 836, (R)-2-amino-N-(1-(4′-((4-amino-2-methylphenyl)(methyl)amino)-[1,1′-biphenyl]-4-carbonyl)pyrrolidin-3-yl)-5-(1-methyl-1H-pyrazol-4-yl)nicotinamide]	
> 1000	> 1000	CN1C(C)(C)CC(Nc2ccc3cc(C(=O)N4CC[C@@H](NC(=O)c5cc(-c6cnn(C)c6)cnc5N)C4)ccc3c2)CC1(C)C [Example 722, (R)-2-amino-5-(1-methyl-1H-pyrazol-4-yl)-N-(1-(6-((1,2,2,6,6-pentamethylpiperidin-4-yl)amino)-2-naphthoyl)pyrrolidin-3-yl)nicotinamide]	
> 1000	> 1000	Cn1cc(-c2cnc(N)c(C(=O)N[C@@H]3CCN(C(=O)c4cc5ccccc5n4C)C3)c2)cn1 [Example 695, (R)-2-amino-N-(1-(1-methyl-1H-indole-2-carbonyl)pyrrolidin-3-yl)-5-(1-methyl-1H-pyrazol-4-yl)nicotinamide]	
> 1000	> 1000	Cn1cc(-c2cnc(N)c(C(=O)N[C@@H]3CCN(C(=O)c4c[nH]c(=O)n(-c5ccc(F)cc5)c4=O)C3)c2)cn1 [Example 707, (R)-2-amino-N-(1-(3-(4-fluorophenyl)-2,4-dioxo-1,2,3,4-tetrahydropyrimidine-5-carbonyl)pyrrolidin-3-yl)-5-(1-methyl-1H-pyrazol-4-yl)nicotinamide]	
10 to 100	> 1000	Cn1cc(-c2cnc(N)c(C(=O)N[C@@H]3CCN(C(=O)c4ccc(-c5ccc(Oc6ccc(C(N)=O)cc6)cc5)cc4)C3)c2)cn1 [Example 788, (R)-2-amino-N-(1-(4′-(4-carbamoylphenoxy)-[1,1′-biphenyl]-4-carbonyl)pyrrolidin-3-yl)-5-(1-methyl-1H-pyrazol-4-yl)nicotinamide]	
> 1000	> 1000	Cn1cc(-c2cnc(N)c(C(=O)NC[C@H]3CCN(C(=O)c4cccc(-c5ccccc5)c4)C3)c2)cn1 [Example 741, (R)—N-((1-([1,1′-biphenyl]-3-carbonyl)pyrrolidin-3-yl)methyl)-2-amino-5-(1-methyl-1H-pyrazol-4-yl)nicotinamide]	
100 to 1000	> 1000	Nc1ncc(-c2ccccc2O)cc1C(=O)N[C@@H]1CCN(C(=O)c2ccc(-c3ccc(F)cc3Cl)cc2)C1 [Example 778, (R)-2-amino-N-(1-(2′-chloro-4′-fluoro-[1,1′-biphenyl]-4-carbonyl)pyrrolidin-3-yl)-5-(2-hydroxyphenyl)nicotinamide]	
10 to 100	> 1000	CC(/C=C/c1ccc(C(=O)N2CC[C@@H](NC(=O)c3cc(-c4cnn(C)c4)cnc3N)C2)cc1)N1CCN(CCO)CC1 (stereo partly drawn) [Example 823, 2-amino-N-((3R)-1-(4-((E)-3-(4-(2-hydroxyethyl)piperazin-1-yl)but-1-en-1-yl)benzoyl)pyrrolidin-3-yl)-5-(1-methyl-1H-pyrazol-4-yl)nicotinamide]	
